{"source": "ChEMBL document CHEMBL1133825", "about": "“3-D-QSAR/CoMFA and recognition models of benzimidazole derivatives at the 5-HT(4) receptor” (Bioorg Med Chem Lett, 2001)", "key": {"[1]": {"target": "T1, 5-hydroxytryptamine receptor 4 (Rattus norvegicus, UniProt Q62758)", "T1 sequence (Q62758 whole entry)": "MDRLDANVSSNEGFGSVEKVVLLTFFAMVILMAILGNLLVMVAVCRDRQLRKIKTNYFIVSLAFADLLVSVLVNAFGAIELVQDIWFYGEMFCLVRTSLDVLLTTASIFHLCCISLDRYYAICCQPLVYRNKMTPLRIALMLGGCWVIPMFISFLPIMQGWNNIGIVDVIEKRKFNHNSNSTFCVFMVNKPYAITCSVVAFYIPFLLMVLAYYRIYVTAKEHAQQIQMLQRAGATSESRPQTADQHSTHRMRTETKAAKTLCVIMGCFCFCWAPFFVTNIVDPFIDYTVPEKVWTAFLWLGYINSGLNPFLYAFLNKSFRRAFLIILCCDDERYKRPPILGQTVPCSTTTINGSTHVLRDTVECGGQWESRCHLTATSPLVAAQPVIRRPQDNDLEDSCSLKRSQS", "experiment": "In vitro binding affinity to 5-hydroxytryptamine 4 receptor in rat striatum membrane", "format": "cell membranes"}, "[2]": {"target": "T1, 5-hydroxytryptamine receptor 4", "experiment": "pKi against 5-hydroxytryptamine 4 receptor in rat striatum membrane", "format": "cell membranes"}}}
{"smiles": "CC(C)CN1CCC(CNC(=O)c2cc(Cl)cc3c2ncn3C)CC1", "values": [{"measurement": "Ki", "setting": "[1]", "value": 2.2, "unit": "nM"}, {"measurement": "Ki", "setting": "[2]", "value": 2.19, "unit": "nM"}]}
{"smiles": "CC(C)CN1CCC(CNC(=O)c2cc(Cl)cc3[nH]cnc23)CC1", "values": [{"measurement": "Ki", "setting": "[1]", "value": 0.29, "unit": "nM"}, {"measurement": "Ki", "setting": "[2]", "value": 0.288, "unit": "nM"}]}
{"smiles": "CCCN1CCC(NC(=O)c2cccc3nc[nH]c23)CC1", "values": [{"measurement": "Ki", "setting": "[1]", "value": "> 1000", "unit": "nM"}, {"measurement": "Ki", "setting": "[2]", "value": "> 1000", "unit": "nM"}]}
{"smiles": "CS(=O)(=O)NCCN1CCC(CNC(=O)c2cccc3[nH]cnc23)CC1", "values": [{"measurement": "Ki", "setting": "[1]", "value": 11.4, "unit": "nM"}, {"measurement": "Ki", "setting": "[2]", "value": 11.5, "unit": "nM"}]}
{"smiles": "CCCCN1CCC(COC(=O)c2cccc3nc[nH]c23)CC1", "values": [{"measurement": "Ki", "setting": "[1]", "value": 24.6, "unit": "nM"}, {"measurement": "Ki", "setting": "[2]", "value": 24.5, "unit": "nM"}]}
{"smiles": "CC(C)CN1CCC(CNC(=O)c2cc(Cl)cc3c2ncn3Cc2ccccc2)CC1", "values": [{"measurement": "Ki", "setting": "[1]", "value": 69.2, "unit": "nM"}, {"measurement": "Ki", "setting": "[2]", "value": 69.2, "unit": "nM"}]}
{"smiles": "CS(=O)(=O)NCCN1CCC(CNC(=O)c2cc(Cl)cc3[nH]cnc23)CC1", "values": [{"measurement": "Ki", "setting": "[1]", "value": 0.11, "unit": "nM"}, {"measurement": "Ki", "setting": "[2]", "value": 0.11, "unit": "nM"}]}
{"smiles": "CCCCN1CCC(CNC(=O)c2ccc(N)c3[nH]cnc23)CC1", "values": [{"measurement": "Ki", "setting": "[1]", "value": 115, "unit": "nM"}, {"measurement": "Ki", "setting": "[2]", "value": 115, "unit": "nM"}]}
{"smiles": "CS(=O)(=O)NCCN1CCC(COC(=O)c2cc(Cl)cc3[nH]cnc23)CC1", "values": [{"measurement": "Ki", "setting": "[1]", "value": 2.3, "unit": "nM"}, {"measurement": "Ki", "setting": "[2]", "value": 2.29, "unit": "nM"}]}
{"smiles": "CCCCN1CCC(CNC(=O)c2cc(Cl)cc3[nH]cnc23)CC1", "values": [{"measurement": "Ki", "setting": "[1]", "value": 0.32, "unit": "nM"}, {"measurement": "Ki", "setting": "[2]", "value": 0.324, "unit": "nM"}]}
{"smiles": "CCCCCN1CCC(CNC(=O)c2cc(Cl)cc3[nH]cnc23)CC1", "values": [{"measurement": "Ki", "setting": "[1]", "value": 0.54, "unit": "nM"}, {"measurement": "Ki", "setting": "[2]", "value": 0.537, "unit": "nM"}]}
{"smiles": "CCN1CCC(NC(=O)c2cccc3[nH]cnc23)CC1", "values": [{"measurement": "Ki", "setting": "[1]", "value": "> 1000", "unit": "nM"}, {"measurement": "Ki", "setting": "[2]", "value": "> 1000", "unit": "nM"}]}
{"smiles": "CCCCN1CCC(COC(=O)c2cc(Cl)cc3[nH]cnc23)CC1", "values": [{"measurement": "Ki", "setting": "[1]", "value": 2.9, "unit": "nM"}, {"measurement": "Ki", "setting": "[2]", "value": 2.88, "unit": "nM"}]}
{"smiles": "CN1CCC(OC(=O)c2cccc3nc[nH]c23)CC1", "values": [{"measurement": "Ki", "setting": "[1]", "value": "> 10000", "unit": "nM"}, {"measurement": "Ki", "setting": "[2]", "value": "> 10000", "unit": "nM"}]}
{"smiles": "CCCCN1CCC(CNC(=O)c2cc(Br)cc3[nH]cnc23)CC1", "values": [{"measurement": "Ki", "setting": "[1]", "value": 0.64, "unit": "nM"}, {"measurement": "Ki", "setting": "[2]", "value": 0.646, "unit": "nM"}]}
{"smiles": "CCCCN1CCC(CNC(=O)c2cc(Cl)c([N+](=O)[O-])c3nc[nH]c23)CC1", "values": [{"measurement": "Ki", "setting": "[1]", "value": 44.6, "unit": "nM"}, {"measurement": "Ki", "setting": "[2]", "value": 44.7, "unit": "nM"}]}
{"smiles": "CCCCN1CCC(NC(=O)c2cccc3nc[nH]c23)CC1", "values": [{"measurement": "Ki", "setting": "[1]", "value": 290, "unit": "nM"}, {"measurement": "Ki", "setting": "[2]", "value": 288, "unit": "nM"}]}
{"smiles": "CCCCN1CCC(CNC(=O)c2cc(Br)c(N)c3nc[nH]c23)CC1", "values": [{"measurement": "Ki", "setting": "[1]", "value": 27.8, "unit": "nM"}, {"measurement": "Ki", "setting": "[2]", "value": 27.5, "unit": "nM"}]}
{"smiles": "CCCCN1CCC(CNC(=O)c2cccc3[nH]cnc23)CC1", "values": [{"measurement": "Ki", "setting": "[1]", "value": 13.7, "unit": "nM"}, {"measurement": "Ki", "setting": "[2]", "value": 13.8, "unit": "nM"}]}
{"smiles": "CS(=O)(=O)NCCN1CCC(COC(=O)c2cccc3nc[nH]c23)CC1", "values": [{"measurement": "Ki", "setting": "[1]", "value": 26.1, "unit": "nM"}, {"measurement": "Ki", "setting": "[2]", "value": 26.3, "unit": "nM"}]}
{"smiles": "CCCCN1CCC(CNC(=O)c2cc(Br)c([N+](=O)[O-])c3[nH]cnc23)CC1", "values": [{"measurement": "Ki", "setting": "[1]", "value": 48.2, "unit": "nM"}, {"measurement": "Ki", "setting": "[2]", "value": 47.9, "unit": "nM"}]}
{"smiles": "CCCCN1CCC(CNC(=O)c2cc(Cl)c(N)c3[nH]cnc23)CC1", "values": [{"measurement": "Ki", "setting": "[1]", "value": 22.4, "unit": "nM"}, {"measurement": "Ki", "setting": "[2]", "value": 22.4, "unit": "nM"}]}
